In one data set the target is Cytochrome P450 2D6 (Homo sapiens, UniProt P10635). Nature of the data set: Inhibition of CYP2D6 (unknown origin). Format: ADME.
Another data set concerns the target Cytochrome P450 2C19 (Homo sapiens, UniProt P33261). Nature of the data set: Inhibition of CYP2C19 (unknown origin). It is filed as ADME.
Data set [1] in a line: Volume of distribution at steady state in CD-1 mouse at 3 mg/kg, po or 1 mg/kg, iv measured up to 24 hrs by LC-MS/MS analysis. Conditions: in vivo, read-out: Vdss. Format: ADME, organism-based.
The next data set concerns the target Bile salt export pump (Homo sapiens, UniProt O95342). Nature of the data set: Inhibition of BSEP (unknown origin). Format: ADME.
Data set [2] deals with ATP-binding cassette sub-family C member 3 (Homo sapiens, UniProt O15438). Nature of the data set: Inhibition of MRP3 (unknown origin).
A short description of data set [3]: Plasma clearance in Cynomolgus monkey at 3 mg/kg, po or 1 mg/kg, iv measured up to 24 hrs by LC-MS/MS analysis. It is filed as ADME, organism-based, Macaca fascicularis.
Data set [4] is described as follows: Oral bioavailability in cynomolgus monkey at 3 mg/kg measured up to 24 hrs by LC-MS/MS analysis. The following applies: in vivo. It is filed as ADME, organism-based, Macaca fascicularis.
A short description of data set [5]: Aqueous solubility of compound at pH 1. Format: physicochemical.
In the next data set the target is Cytochrome P450 2C9 (Homo sapiens, UniProt P11712). Nature of the data set: Inhibition of CYP2C9 (unknown origin). It is filed as ADME.
Data set [6] can be described thus: Drug metabolism in monkey hepatocytes assessed as formation of acyl glucuronides metabolites at 10 uM measured after 2 hrs by LC/UV/MS analysis. It is filed as ADME, cell-based, Macaca mulatta, Hepatocyte. Conditions: rhesus monkey.
Data set [7] deals with T1, Solute carrier organic anion transporter family member 1B3 (Homo sapiens, UniProt Q9NPD5).
T1 sequence (Q9NPD5 whole entry): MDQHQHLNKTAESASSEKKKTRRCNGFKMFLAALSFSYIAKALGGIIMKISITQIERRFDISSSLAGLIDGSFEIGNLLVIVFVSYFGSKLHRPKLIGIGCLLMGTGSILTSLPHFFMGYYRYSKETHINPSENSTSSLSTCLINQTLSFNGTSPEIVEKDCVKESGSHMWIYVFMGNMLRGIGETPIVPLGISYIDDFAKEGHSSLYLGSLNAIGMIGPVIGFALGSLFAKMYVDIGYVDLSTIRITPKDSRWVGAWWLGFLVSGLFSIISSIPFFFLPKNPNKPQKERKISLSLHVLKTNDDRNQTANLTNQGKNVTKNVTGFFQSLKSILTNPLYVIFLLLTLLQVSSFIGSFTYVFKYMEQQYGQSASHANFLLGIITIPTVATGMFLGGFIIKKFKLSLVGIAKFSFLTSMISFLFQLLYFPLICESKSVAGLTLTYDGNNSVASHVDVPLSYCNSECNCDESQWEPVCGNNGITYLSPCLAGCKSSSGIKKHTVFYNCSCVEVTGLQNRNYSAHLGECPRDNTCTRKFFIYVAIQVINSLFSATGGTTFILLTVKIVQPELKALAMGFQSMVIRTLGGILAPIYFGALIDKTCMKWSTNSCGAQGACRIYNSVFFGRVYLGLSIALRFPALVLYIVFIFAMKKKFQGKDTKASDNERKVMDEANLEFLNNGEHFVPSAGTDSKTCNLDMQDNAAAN
Nature of the data set: Inhibition of OATP1B3 (unknown origin). Format: ADME.

Another data set concerns the target CYP2C9 (Homo sapiens, UniProt P11712). Nature of the data set: Induction of CYP2C9 in human hepatocytes. Format: ADME, cell-based, Hepatocyte.
Data set [8] in a line: Lipophilicity, log D of compound at pH 6.5 by shake-flask method. Format: physicochemical. The following applies: buffer.
Data set [9] is described as follows: Half life in mouse liver microsomes at 10 uM measured after 120 mins. Format: ADME, Microsome.
Data set [10] is described as follows: Aqueous solubility of compound at pH 7.4. Format: physicochemical.
Data set [11] in a line: Elimination half life in cynomolgus monkey at 3 mg/kg, po or 1 mg/kg, iv measured up to 24 hrs by LC-MS/MS analysis. Format: ADME, organism-based, Macaca fascicularis. The following applies: in vivo, read-out: beta t1/2 (converted).
The target of data set [12] is T2, ATP-binding cassette sub-family C member 4 (Homo sapiens, UniProt O15439).
T2 sequence (O15439 whole entry): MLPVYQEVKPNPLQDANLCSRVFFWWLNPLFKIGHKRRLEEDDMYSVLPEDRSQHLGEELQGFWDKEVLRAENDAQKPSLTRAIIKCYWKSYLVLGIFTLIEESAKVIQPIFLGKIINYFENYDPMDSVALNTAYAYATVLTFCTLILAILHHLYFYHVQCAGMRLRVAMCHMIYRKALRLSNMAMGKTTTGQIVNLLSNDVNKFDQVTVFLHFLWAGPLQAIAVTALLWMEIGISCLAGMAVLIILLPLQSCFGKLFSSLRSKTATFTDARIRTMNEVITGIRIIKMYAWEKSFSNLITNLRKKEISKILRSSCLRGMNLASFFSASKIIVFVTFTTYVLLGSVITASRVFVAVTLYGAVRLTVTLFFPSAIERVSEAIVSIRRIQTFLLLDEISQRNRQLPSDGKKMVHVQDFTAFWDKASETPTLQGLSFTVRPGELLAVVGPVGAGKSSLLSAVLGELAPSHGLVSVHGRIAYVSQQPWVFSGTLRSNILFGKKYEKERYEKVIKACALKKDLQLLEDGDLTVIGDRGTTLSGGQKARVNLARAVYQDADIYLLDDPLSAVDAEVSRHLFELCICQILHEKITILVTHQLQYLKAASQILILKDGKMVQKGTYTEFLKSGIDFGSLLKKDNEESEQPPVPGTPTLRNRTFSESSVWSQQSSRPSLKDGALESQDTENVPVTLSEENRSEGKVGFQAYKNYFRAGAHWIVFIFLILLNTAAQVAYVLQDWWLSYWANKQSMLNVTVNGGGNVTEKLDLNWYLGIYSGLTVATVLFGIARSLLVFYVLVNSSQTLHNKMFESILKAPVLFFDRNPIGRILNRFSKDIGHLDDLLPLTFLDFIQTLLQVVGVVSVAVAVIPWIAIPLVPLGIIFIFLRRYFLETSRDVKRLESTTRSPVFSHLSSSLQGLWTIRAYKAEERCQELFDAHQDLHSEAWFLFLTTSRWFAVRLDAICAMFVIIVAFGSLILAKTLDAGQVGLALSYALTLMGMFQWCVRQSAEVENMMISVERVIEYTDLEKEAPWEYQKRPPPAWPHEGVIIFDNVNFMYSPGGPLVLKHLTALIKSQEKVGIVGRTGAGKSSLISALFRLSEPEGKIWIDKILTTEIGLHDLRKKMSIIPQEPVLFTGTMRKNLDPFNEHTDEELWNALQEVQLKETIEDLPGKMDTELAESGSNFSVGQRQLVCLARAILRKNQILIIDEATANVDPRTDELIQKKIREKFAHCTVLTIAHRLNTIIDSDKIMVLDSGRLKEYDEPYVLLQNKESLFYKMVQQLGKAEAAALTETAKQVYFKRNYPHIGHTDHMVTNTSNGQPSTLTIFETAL
Nature of the data set: Inhibition of MRP4 (unknown origin).

Data set [13] in a line: Half life in rat liver microsomes at 10 uM measured after 120 mins. It is filed as ADME, Microsome.
The nature of data set [14]: Protein binding in CD-1 mouse plasma assessed as free fraction at 3 mg/kg, po or 1 mg/kg, iv measured up to 24 hrs by LC-MS/MS analysis. It is filed as ADME, organism-based.

This is an account of results in ChEMBL document CHEMBL5034035, “Discovery of an Oxycyclohexyl Acid Lysophosphatidic Acid Receptor 1 (LPA1) Antagonist BMS-986278 for the Treatment of Pulmonary Fibrotic Diseases” (J Med Chem, 2021).

≈ marks a conversion by molar mass, not a printed value.

As a reminder, the IC50 is the concentration needed to halve the response being measured. What is called bioavailability is the share of a dose that reaches the circulation, judged against a reference dose that is usually intravenous. The term solubility denotes the concentration that dissolves in the medium under given conditions. One may read the logD as the decadic logarithm of the distribution of all forms, ionised or not, between an organic phase and buffer at a given pH. As usually defined, the fraction unbound is free concentration divided by total concentration.

Chain of Bile salt export pump (O95342 whole entry): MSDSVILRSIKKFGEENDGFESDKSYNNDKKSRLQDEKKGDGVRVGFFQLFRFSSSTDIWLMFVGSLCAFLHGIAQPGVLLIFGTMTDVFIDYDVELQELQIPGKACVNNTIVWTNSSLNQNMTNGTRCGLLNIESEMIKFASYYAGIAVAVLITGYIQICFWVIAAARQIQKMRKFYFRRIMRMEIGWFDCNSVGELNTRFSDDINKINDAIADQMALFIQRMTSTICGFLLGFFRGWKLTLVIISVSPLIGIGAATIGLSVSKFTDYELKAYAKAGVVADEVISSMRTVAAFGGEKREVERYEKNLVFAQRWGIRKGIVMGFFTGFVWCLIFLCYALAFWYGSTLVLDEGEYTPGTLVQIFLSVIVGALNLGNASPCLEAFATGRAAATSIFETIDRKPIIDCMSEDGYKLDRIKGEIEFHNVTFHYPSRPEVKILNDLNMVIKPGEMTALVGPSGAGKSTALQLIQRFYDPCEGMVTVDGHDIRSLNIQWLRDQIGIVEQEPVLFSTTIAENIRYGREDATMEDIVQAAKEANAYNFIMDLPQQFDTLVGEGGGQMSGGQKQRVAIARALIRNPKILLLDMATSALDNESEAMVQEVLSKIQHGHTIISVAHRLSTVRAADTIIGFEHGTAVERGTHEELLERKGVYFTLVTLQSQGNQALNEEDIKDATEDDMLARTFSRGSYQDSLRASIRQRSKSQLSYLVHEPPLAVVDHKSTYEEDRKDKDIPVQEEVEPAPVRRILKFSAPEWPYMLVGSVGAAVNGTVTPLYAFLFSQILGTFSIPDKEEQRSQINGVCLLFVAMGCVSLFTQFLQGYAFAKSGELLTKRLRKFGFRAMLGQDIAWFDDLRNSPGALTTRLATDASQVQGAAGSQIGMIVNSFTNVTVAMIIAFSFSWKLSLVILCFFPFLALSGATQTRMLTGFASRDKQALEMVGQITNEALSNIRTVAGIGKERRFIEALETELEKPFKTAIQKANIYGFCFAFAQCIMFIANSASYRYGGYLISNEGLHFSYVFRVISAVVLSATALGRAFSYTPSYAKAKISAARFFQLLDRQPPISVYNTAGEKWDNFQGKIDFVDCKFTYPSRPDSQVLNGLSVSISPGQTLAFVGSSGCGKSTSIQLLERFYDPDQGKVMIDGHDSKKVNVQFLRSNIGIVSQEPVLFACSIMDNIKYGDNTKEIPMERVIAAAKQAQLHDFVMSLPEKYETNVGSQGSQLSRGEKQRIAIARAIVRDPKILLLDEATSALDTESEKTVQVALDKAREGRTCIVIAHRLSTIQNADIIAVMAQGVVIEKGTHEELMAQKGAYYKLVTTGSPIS
Chain of ATP-binding cassette sub-family C member 3 (O15438 whole entry): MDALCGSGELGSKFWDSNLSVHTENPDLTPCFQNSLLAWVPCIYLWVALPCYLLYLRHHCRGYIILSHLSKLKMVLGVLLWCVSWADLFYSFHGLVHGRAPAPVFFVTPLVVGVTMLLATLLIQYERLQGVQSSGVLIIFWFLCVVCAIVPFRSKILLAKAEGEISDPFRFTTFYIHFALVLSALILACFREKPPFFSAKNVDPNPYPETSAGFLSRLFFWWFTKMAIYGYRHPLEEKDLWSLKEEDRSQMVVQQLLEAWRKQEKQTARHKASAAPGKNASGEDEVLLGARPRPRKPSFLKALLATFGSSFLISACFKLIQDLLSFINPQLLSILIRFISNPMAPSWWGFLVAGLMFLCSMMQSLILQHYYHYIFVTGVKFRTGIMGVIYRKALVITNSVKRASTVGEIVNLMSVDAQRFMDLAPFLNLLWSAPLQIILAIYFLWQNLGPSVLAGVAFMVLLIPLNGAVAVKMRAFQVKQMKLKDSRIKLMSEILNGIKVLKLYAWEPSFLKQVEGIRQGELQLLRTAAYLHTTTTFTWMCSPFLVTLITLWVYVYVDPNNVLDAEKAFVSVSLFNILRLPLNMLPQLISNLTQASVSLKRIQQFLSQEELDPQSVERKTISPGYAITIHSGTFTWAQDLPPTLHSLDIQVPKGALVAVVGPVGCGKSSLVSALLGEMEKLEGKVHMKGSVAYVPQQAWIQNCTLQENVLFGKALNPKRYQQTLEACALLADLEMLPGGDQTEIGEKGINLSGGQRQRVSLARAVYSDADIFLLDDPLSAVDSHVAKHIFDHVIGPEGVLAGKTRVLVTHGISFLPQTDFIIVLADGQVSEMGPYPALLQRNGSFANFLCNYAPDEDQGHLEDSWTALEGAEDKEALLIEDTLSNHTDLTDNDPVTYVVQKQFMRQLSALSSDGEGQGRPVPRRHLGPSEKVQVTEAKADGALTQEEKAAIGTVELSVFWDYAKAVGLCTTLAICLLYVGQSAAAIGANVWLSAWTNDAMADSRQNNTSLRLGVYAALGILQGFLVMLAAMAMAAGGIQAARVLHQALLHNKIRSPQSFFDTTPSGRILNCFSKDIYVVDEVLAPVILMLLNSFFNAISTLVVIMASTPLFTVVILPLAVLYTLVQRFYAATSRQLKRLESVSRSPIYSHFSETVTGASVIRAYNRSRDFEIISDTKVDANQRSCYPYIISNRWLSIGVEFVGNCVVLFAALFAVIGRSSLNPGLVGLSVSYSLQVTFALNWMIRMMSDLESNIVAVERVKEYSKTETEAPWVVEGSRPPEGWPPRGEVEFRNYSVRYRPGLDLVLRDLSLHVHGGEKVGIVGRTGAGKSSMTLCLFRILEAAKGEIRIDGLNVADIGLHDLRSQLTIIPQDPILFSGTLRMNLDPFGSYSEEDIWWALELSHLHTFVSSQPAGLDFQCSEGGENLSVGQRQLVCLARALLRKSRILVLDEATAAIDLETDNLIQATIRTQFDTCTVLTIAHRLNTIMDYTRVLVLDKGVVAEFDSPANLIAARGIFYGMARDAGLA
Chain of Cytochrome P450 2D6 (P10635 whole entry): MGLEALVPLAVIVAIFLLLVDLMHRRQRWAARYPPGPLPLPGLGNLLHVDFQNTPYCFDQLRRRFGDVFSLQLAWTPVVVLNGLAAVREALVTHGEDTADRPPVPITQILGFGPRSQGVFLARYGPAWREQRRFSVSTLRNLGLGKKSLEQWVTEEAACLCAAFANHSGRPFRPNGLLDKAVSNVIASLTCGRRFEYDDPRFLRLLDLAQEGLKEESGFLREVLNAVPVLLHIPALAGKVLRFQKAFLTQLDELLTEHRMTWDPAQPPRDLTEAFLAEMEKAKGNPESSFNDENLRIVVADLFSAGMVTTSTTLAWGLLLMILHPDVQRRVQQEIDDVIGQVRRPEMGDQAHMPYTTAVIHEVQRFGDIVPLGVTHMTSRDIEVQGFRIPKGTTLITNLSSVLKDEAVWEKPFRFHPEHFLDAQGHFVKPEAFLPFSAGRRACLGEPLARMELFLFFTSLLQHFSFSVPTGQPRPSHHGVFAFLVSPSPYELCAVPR
Chain of CYP2C9 (P11712 whole entry): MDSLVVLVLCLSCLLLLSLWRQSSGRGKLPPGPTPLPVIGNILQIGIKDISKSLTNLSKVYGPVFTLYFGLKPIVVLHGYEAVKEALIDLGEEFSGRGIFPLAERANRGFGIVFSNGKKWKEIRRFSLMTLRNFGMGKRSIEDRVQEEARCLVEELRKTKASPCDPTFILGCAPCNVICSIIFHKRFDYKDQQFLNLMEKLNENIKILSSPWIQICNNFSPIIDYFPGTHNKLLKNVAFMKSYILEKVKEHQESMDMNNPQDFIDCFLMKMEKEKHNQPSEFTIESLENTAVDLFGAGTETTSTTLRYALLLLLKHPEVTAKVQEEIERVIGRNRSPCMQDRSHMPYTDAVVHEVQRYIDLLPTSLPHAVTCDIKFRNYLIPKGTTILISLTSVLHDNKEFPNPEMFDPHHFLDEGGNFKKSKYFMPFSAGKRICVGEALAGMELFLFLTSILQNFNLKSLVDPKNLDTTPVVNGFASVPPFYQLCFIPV
Chain of Cytochrome P450 2C9 (P11712 whole entry): as above
Chain of Cytochrome P450 2C19 (P33261 whole entry): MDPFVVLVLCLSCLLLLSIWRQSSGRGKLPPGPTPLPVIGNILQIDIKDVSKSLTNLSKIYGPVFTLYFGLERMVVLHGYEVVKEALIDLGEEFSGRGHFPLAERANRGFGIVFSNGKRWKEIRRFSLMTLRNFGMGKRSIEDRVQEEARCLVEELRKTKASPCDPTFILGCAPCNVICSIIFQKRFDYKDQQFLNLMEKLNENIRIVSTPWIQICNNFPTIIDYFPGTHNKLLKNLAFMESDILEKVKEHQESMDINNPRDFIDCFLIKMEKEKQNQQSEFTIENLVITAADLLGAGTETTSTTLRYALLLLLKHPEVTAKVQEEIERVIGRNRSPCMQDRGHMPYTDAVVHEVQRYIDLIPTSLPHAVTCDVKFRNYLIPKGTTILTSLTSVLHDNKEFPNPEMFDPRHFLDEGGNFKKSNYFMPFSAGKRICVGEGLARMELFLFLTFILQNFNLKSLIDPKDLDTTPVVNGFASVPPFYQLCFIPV

Consider `Cc1nc(-c2nnn(C)c2COC(=O)N(C)CC2CCC2)ccc1O[C@H]1CCC[C@H](C(=O)O)C1`, for which the IC50 against Cytochrome P450 2D6 was greater than 40 µM; against Cytochrome P450 2C19, greater than 40 µM; on Bile salt export pump it was 19.6 µM; in [2], 24 µM; against Cytochrome P450 2C9, greater than 40 µM; in data set [7] it was 2.6 µM. Moreover, the IC50 at CYP2C9 was greater than 50 µM; in data set [12], 16 µM. Besides, the Vd in [1] is 14.6 L/kg. In addition, the clearance in data set [3] was 17 mL/min/kg. Besides, in data set [4], the bioavailability stood at 65%. The solubility in [5] turned out to be 389 µg/mL (≈ 825 µM); in [10], 705 µg/mL (≈ 1500 µM). Moreover, the Drug metabolism entry in data set [6] is “Metabolite_Detected”. The logD in data set [8] amounted to 2.3. The half-life at 10 µM in data set [9] and in data set [13] was greater than 2 h throughout. In addition, the half-life in data set [11] is 14 h. Further, in [14], the fraction unbound at 24 h came out at 0.1.
Take `CCCN(C)C(=O)OCc1c(-c2ccc(O[C@H]3CCC[C@H](C(=O)O)C3)c(C)n2)nnn1C` [ADMILPARANT]: the IC50 against Cytochrome P450 2D6 is greater than 40 µM; on Cytochrome P450 2C19 it was greater than 40 µM; at Bile salt export pump, greater than 100 µM; in data set [2] it was 66 µM; against Cytochrome P450 2C9 it was greater than 40 µM; in data set [7], 10 µM. For the same compound, the IC50 on CYP2C9 is greater than 50 µM; in data set [12], 47 µM. The Vd in data set [1] came out at 5.5 L/kg. The clearance in [3] was 2 mL/min/kg. In addition, the bioavailability in data set [4] was 79%. The compound further returned a solubility in data set [5] of 2990 µg/mL (≈ 6710 µM). Besides, the Drug metabolism entry in [6] is recorded as “Metabolite_Detected”. The compound also had a logD in data set [8] of 1.95. Besides, the half-life at 10 µM in [9] and in data set [13] was greater than 2 h throughout. Besides, the half-life in data set [11] is 11 h. Besides, the fraction unbound at 24 h in data set [14] was 0.314.
As for `Cc1noc(-c2ccc(-c3ccc(C4(C(=O)O)CC4)cc3)cc2)c1NC(=O)O[C@H](C)c1ccccc1` [BMS-986020], the IC50 is greater than 50 µM at Cytochrome P450 2D6; greater than 50 µM on Cytochrome P450 2C19; 4.8 µM at Bile salt export pump; 22 µM in data set [2]; 5.5 µM at Cytochrome P450 2C9; 0.57 µM in [7]. Also, the IC50 was greater than 50 µM on CYP2C9 and 6.2 µM in data set [12]. Moreover, the solubility is less than 1 µg/mL in [5] and 11 µg/mL (≈ 22.8 µM) in data set [10]. The same compound gave a logD in [8] of 3.6. The half-life at 10 µM in [9] stood at 1.52 h; in [13], 1.27 h. Further, the fraction unbound at 24 h in data set [14] is 0.006.
